Experimental data taken from publication PMC4503722, “Novel Phenotypic Outcomes Identified for a Public Collection of Approved Drugs from a Publicly Accessible Panel of Assays” (PLoS ONE, 2015).
Like-named read-outs stand apart in the source and are kept apart here.

Columns and labels:
Colo320 = experiment: cells; assay type: cell-based; settings: for IC50: read-out: Basal_Viability ATP Colo 320 summarized IC50
SW480 = experiment: cells; assay type: cell-based; settings: for IC50: read-out: Basal_Viability ATP SW480 summarized IC50
HCT116 = experiment: cells; assay type: cell-based; settings: for IC50: read-out: Basal_Viability ATP HCT116 summarized IC50
HT-29 = experiment: cells; assay type: cell-based; settings: basal; for IC50 / Basal_Viability ATP HT-29 IC50/EC50: assay number 28; for IC50: read-out: Basal_Viability ATP HT-29 summarized IC50
RKO = experiment: cells; assay type: cell-based; settings: for IC50: read-out: Basal_Viability ATP RKO summarized IC50
SNU-C1 = experiment: cells; assay type: cell-based; settings: for IC50: read-out: Basal_Viability ATP SNU-C1 summarized IC50
DLD-1 = experiment: cells; assay type: cell-based; settings: for IC50: read-out: Basal_Viability ATP DLD-1 summarized IC50
[1] = tested on: endothelial tube formation in co-cultures of ECFCs and ADSCs treated with VEGF; experiment: cells; assay type: cell-based, human; settings: for IC50: read-out: VEGF_ADSC\ECFC Angio CD31 TubeArea summarized IC50
[2] = tested on: HCT116 cells treated with a GSK3β inhibitor; experiment: cells; assay type: cell-based; settings: for IC50: read-out: GSK3b inh pretreated_Viability ATP HCT116 summarized IC50
[3] = tested on: ECFC/ADSC co-culture cell nuclei number; settings: for IC50: read-out: VEGF_ADSC\ECFC Angio Hoechst NucArea summarized IC50
HeLa cells = experiment: cells; assay type: cell-based;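 as to Hela CellCycMod PI 4N summarized IC50: value tracks stimulation of 4N DNA content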
[4] = assay number 26, GSK3b inhibitor pretreated

`NC(=O)N/N=C/c1ccc([N+](=O)[O-])o1` [NCGC00090686-11] was tested, and the IC50 (Colo320; assay number 27, basal) was > 20 µM, the IC50 (SW480; assay number 24, basal) was > 20 µM and the IC50 (HCT116; assay number 25, basal) was > 20 µM. For the same compound, the IC50 (HT-29) was > 20 µM, the IC50 (RKO; assay number 29, basal) was > 20 µM and the IC50 (SNU-C1; assay number 30, basal) was > 20 µM. The IC50 (DLD-1; assay number 23, basal) was > 20 µM.
For `CN1Cc2cc(C(=O)N3CCC(C4CCNCC4)CC3)ccc2N[C@@H](CC(=O)O)C1=O` [NCGC00319023-01], the “Basal_Viability ATP Colo 320 IC50/EC50” value (Colo320; assay number 27, concentration response) was > 20 µM, the “Basal_Viability ATP SW480 IC50/EC50” value (SW480; assay number 24, concentration response) was > 20 µM and the “Basal_Viability ATP HCT116 IC50/EC50” value (HCT116; assay number 25, basal, concentration response) was > 20 µM. For the same compound, the “VEGF_ADSC\ECFC Angio CD31 TubeArea IC50/EC50” value [1] was > 10 µM, the “GSK3b inh pretreated_Viability ATP HCT116 IC50/EC50” value ([2]; assay number 26, GSK3b inhibitor pretreated, concentration response) was > 20 µM and the “VEGF_ADSC\ECFC Angio Hoechst NucArea IC50/EC50” value [3] was > 10 µM. The “Basal_Viability ATP RKO IC50/EC50” value (RKO; assay number 29, concentration response) was > 20 µM, the “Basal_Viability ATP SNU-C1 IC50/EC50” value (SNU-C1; assay number 30, concentration response) was > 20 µM and the “Basal_Viability ATP DLD-1 IC50/EC50” value (DLD-1; assay number 23, concentration response) was > 20 µM.
Work on `Oc1ccc(Cl)cc1Sc1cc(Cl)ccc1O` [NCGC00013679-06] yielded an IC50 (Colo320) of 0.075 µM, an IC50 (SW480) of 0.579 µM and an IC50 (HCT116) of 0.183 µM. It also gave an IC50 [1] of 3.53 µM, an IC50 [2] of 0.148 µM and an IC50 [3] of 8.69 µM. It also gave an IC50 (RKO) of 0.116 µM, an IC50 (SNU-C1) of 1.85 µM and an IC50 (DLD-1) of 0.301 µM.
In the case of `CCCCCCCCCCCC[N+](C)(C)Cc1ccccc1` [NCGC00164245-03], the IC50 [1] is reported as > 10 µM, the IC50 [2, 4] is reported as > 20 µM and the IC50 (HT-29) is reported as 0.465 µM. The IC50 [3] was 6.93 µM, the IC50 (SNU-C1; assay number 30, basal) was 0.02 µM and the IC50 (DLD-1; assay number 23, basal) was 0.738 µM. The IC50 (HeLa cells; assay number 14, 2N, read-out: Hela CellCycMod PI 2N summarized IC50) was > 10 µM, the IC50 (HeLa cells; assay number 15, S phase, read-out: Hela CellCycMod PI S Phase summarized IC50) was > 10 µM and the IC50 (HeLa cells; assay number 16, 4N, read-out: Hela CellCycMod PI 4N summarized IC50) was > 10 µM. For the same compound, the IC50 (HeLa cells; assay number 17, MI, read-out: Hela CellCycMod PI MI summarized IC50) was > 10 µM and the IC50 (HeLa cells; assay number 18, cell number, read-out: Hela CellCycMod PI Cell Number summarized IC50) was > 10 µM.
For `C[S+](CC[C@H](N)C(=O)O)C[C@H]1O[C@@H](n2cnc3c(N)ncnc32)[C@H](O)[C@@H]1O` (stereo partly shown) [NCGC00167546-03], the “Basal_Viability ATP Colo 320 IC50/EC50” value (Colo320; assay number 27, basal) was > 20 µM, the “Basal_Viability ATP SW480 IC50/EC50” value (SW480; assay number 24, basal) was > 20 µM and the “Basal_Viability ATP HCT116 IC50/EC50” value (HCT116; assay number 25, basal) was > 20 µM. For the same compound, the “VEGF_ADSC\ECFC Angio CD31 TubeArea IC50/EC50” value [1] was > 10 µM, the “GSK3b inh pretreated_Viability ATP HCT116 IC50/EC50” value [2, 4] was > 20 µM and the “VEGF_ADSC\ECFC Angio Hoechst NucArea IC50/EC50” value [3] was > 10 µM. For the same compound, the “Basal_Viability ATP RKO IC50/EC50” value (RKO; assay number 29, basal) was > 20 µM, the “Basal_Viability ATP SNU-C1 IC50/EC50” value (SNU-C1; assay number 30, basal) was > 20 µM and the “Basal_Viability ATP DLD-1 IC50/EC50” value (DLD-1; assay number 23, basal) was > 20 µM.
`CC(C)(C)CC(C)(C)c1cc(Cc2cc(C(C)(C)CC(C)(C)C)cc(-n3nc4ccccc4n3)c2O)c(O)c(-n2nc3ccccc3n2)c1` [NCGC00167544-02] was tested, and the “Basal_Viability ATP Colo 320 IC50/EC50” value (Colo320; assay number 27, basal) was > 20 µM, the “Basal_Viability ATP SW480 IC50/EC50” value (SW480; assay number 24, basal) was > 20 µM and the “Basal_Viability ATP HCT116 IC50/EC50” value (HCT116; assay number 25, basal) was > 20 µM. For the same compound, the “Basal_Viability ATP HT-29 IC50/EC50” value (HT-29) was > 20 µM, the “Basal_Viability ATP RKO IC50/EC50” value (RKO; assay number 29, basal) was > 20 µM and the “Basal_Viability ATP SNU-C1 IC50/EC50” value (SNU-C1; assay number 30, basal) was > 20 µM. The “Basal_Viability ATP DLD-1 IC50/EC50” value (DLD-1; assay number 23, basal) was > 20 µM.
In the case of `CCn1cc(C(=O)O)c(=O)c2cnc(N3CCNCC3)nc21` [NCGC00016866-11], the “Basal_Viability ATP Colo 320 IC50/EC50” value (Colo320; assay number 27, basal) is reported as > 20 µM, the “Basal_Viability ATP SW480 IC50/EC50” value (SW480; assay number 24, basal) is reported as > 20 µM and the “Basal_Viability ATP HCT116 IC50/EC50” value (HCT116; assay number 25, basal) is reported as > 20 µM. The “Basal_Viability ATP HT-29 IC50/EC50” value (HT-29) was > 20 µM, the “Basal_Viability ATP RKO IC50/EC50” value (RKO; assay number 29, basal) was > 20 µM and the “Basal_Viability ATP SNU-C1 IC50/EC50” value (SNU-C1; assay number 30, basal) was > 20 µM. For the same compound, the “Basal_Viability ATP DLD-1 IC50/EC50” value (DLD-1; assay number 23, basal) was > 20 µM.
With `Cc1cc(-c2ccc(N=Nc3c(S(=O)(=O)O)cc4cc(S(=O)(=O)O)cc(N)c4c3O)c(C)c2)ccc1N=Nc1c(S(=O)(=O)O)cc2cc(S(=O)(=O)O)cc(N)c2c1O` [NCGC00344528-01] the “IC50/EC50, Basal_Viability ATP Colo 320 (assay number 27)” value (Colo320; basal) was > 20 µM, the “IC50/EC50, Basal_Viability ATP SW480 (assay number 24)” value (SW480; basal) was > 20 µM and the “IC50/EC50, Basal_Viability ATP HCT116 (assay number 25)” value (HCT116; basal) was > 20 µM. The “IC50/EC50, VEGF_ADSC\ECFC Angio CD31 TubeArea (assay number 2)” value [1] was > 10 µM, the “IC50/EC50, GSK3b inh pretreated_Viability ATP HCT116 (assay number 26)” value ([2]; GSK3b inh pretreated) was > 20 µM and the “IC50/EC50, Basal_Viability ATP HT-29 (assay number 28)” value (HT-29) was > 20 µM. For the same compound, the “IC50/EC50, VEGF_ADSC\ECFC Angio Hoechst NucArea (assay number 3)” value [3] was > 10 µM, the “IC50/EC50, Basal_Viability ATP RKO (assay number 29)” value (RKO; basal) was > 20 µM and the “IC50/EC50, Basal_Viability ATP DLD-1 (assay number 23)” value (DLD-1; basal) was > 20 µM.
`C=C(CC)C(=O)c1ccc(OCC(=O)O)c(Cl)c1Cl` [NCGC00016260-13] was tested, and the IC50 (Colo320) was > 20 µM, the IC50 (SW480) was > 6.67 µM and the IC50 (HCT116) was > 20 µM. The IC50 [2] was 12.2 µM, the IC50 (RKO) was > 6.67 µM and the IC50 (SNU-C1) was > 20 µM. The IC50 (DLD-1) was 11.9 µM.
With `CCc1cccc2c3c([nH]c12)C(CC)(CC(=O)O)OCC3` (stereo not shown) [NCGC00015399-16] the “Basal_Viability ATP Colo 320 IC50/EC50” value (Colo320; assay number 27, basal) was > 20 µM, the “Basal_Viability ATP SW480 IC50/EC50” value (SW480; assay number 24, basal) was > 20 µM and the “Basal_Viability ATP HCT116 IC50/EC50” value (HCT116; assay number 25, basal) was > 20 µM. For the same compound, the “Basal_Viability ATP HT-29 IC50/EC50” value (HT-29) was > 20 µM, the “Basal_Viability ATP RKO IC50/EC50” value (RKO; assay number 29, basal) was > 20 µM and the “Basal_Viability ATP SNU-C1 IC50/EC50” value (SNU-C1; assay number 30, basal) was > 20 µM. For the same compound, the “Basal_Viability ATP DLD-1 IC50/EC50” value (DLD-1; assay number 23, basal) was > 20 µM.
